# Test system: EHT cells
# Assay: EHT cell subculture with metabolic regulators, flow cytometry
# Type: cell-based, human
# Details: UK5099 10 μM
# Description: The RB9-CB1 human iPSC line (Woods, N.-B. et al. Brief report: efficient generation of hematopoietic precursors and progenitors from human pluripotent stem cell lines. Stem Cells 29, 1158-1164 (2011)) was co-cultured with mouse embryonic fibroblasts (MEFs, Millipore), passaged every six days and processed to form embryoid bodies (EBs) as described previously (Guibentif, C. et al. Single-Cell Analysis Identifies Distinct Stages of Human Endothelial to-Hematopoietic Transition. Cell Reports 19, 10-19 (2017)). The differentiation protocol used in this study was previously described (Ditadi, A. & Sturgeon, C. M. Directed differentiation of definitive hemogenic endothelium and hematopoietic progenitors from human pluripotent stem cells. Methods 101, 65-72 (2016)), however, small modifications were made to induce both primitive and definitive hematopoiesis, as indicated below and in FIG. 6, a. Newly-formed EBs were first kept in SFD medium supplemented with 1 ng/ml Activin A (on days 0-2) and 3 μM CHIR99021 (on day 2 only). At day 3, media was switched to “Day 3-SP34” medium supplemented with 1 ng/ml Activin A (on day 3 only) and 3 μM CHIR99021 (on day 3 only) until day 6. On day 6, media was replaced by “Day 6-SP34” medium, until day 8. In some experiments where indicated, to obtain a higher yield of HSC-like cells, EBs were kept until day 10: in this case, EBs were plated onto Matrigel (8 μg/cm2, Corning)-coated dishes on day 8 and kept until day 10. Media was changed every day, except on days 5 and 7. On day 8 or 10 (as indicated), EBs were singularized with 5-6 rounds of 5-minute incubations with TryPLE Express (Thermo Fisher Scientific). […]
compound,measurement,setting,value
"N#CC(=Cc1cn(-c2ccccc2)c2ccccc12)C(=O)O [UK5099, 2-Cyano-3-(1-phenyl-1H-indol-3-yl)-2-propenoic acid]",CD43+GPA+ cell output,"day 3, EHT cells",absence of bias
same,decrease in CD43+CD45+ population,"day 6, deriving from EHT cells",2 fold

# Source: patent US20250129334A1, “LINEAGE SPECIFICATION DURING STEM CELL TRANSITION” (Amniotics AB, priority 2021, published 2025)
